pIC50: −log10 of the molar value. Where two headings read alike, the source gives them in different places.
Experiments:
His6-GSK-3β = molecular target: T1, His6-GSK-3β (Homo sapiens, UniProt P49841); assay: Inhibition of His6-GSK-3β kinase activity (ELISA-based format, time-resolved fluorescence readout); assay type: biochemical; details: for pIC50: read-out: GSK3β IC50
T1 construct: made in house; host or cells: Sf21 insect cells (baculovirus)
Text: Full-length GSK-3β was amplified from a sequence-verified I.M.A.G.E. EST acquired from Research Genetics (Invitrogen, Clone ID# CSODB003YJ02). The final sequence-verified cDNA contained the coding region for a NH2-terminal tag, which encoded for 6 histidines and then eight vector-encoded amino acids prior to the start of GSK3β, which contained by # 43-1342 of Genbank Accession # NM_002093, encoding amino acids #2-419. The predicted molecular weight of the tagged, 435 amino acid, full-length protein is 48.5 kDa. The major structural element of this protein is the kinase domain, which is from amino acids #56-340. Recombinant baculoviral DNA was prepared by transposition in E. coli (BAC-TO-BAC system: Invitrogen) and the virus generated and amplified in Sf21 insect cells. A suspension culture of Sf21 cells was infected at an MOI of 0.7 and cell density of 1.5×10^6 cells/mL in Excell 420 serum-free media (JRH BioScience) and harvested 65 h after infection. The 100,000×g supernatant solution was used for purification. Expression was confirmed by running samples on SDS-PAGE, followed by immunoblot analysis utilizing both a Penta-HIS antibody (Qiagen #34660) and a GSK-3α/GSK-3β antibody (Calbiochem #368662, data not shown). The His6-tagged protein was purified to in one step by Ni-NTA affinity chromatography.
Inhibitory effects of compounds on baculoviral GSK-3β kinase activity were evaluated using an ELISA-based format in a 384-well FluoroNunc Maxisorp plate (Cat # 460372) with a time-resolved fluorescence readout. Briefly, each plate was coated with 50 μl/well of 20 μg/ml substrate solution (recombinant GST-Rb) in Tris-buffered saline (TBS). The GSK-3β assay mixture (total volume=50 μl/well) consisting of 50 mM HEPES (pH 7.2), 20 μM ATP, 10 mM MgCl2, 5 mM EGTA, 25 mM β-glycerophosphate, 0.05% BSA, 2.5% DMSO, and various concentrations of test compound were then added to the assay plate. Enzyme (200 ng/ml His6-GSK-3β) was then added and the reaction was allowed to proceed at 37° C. for 30 minutes. Detection of the phosphorylated product was performed by adding 50 μl/well of phospho-Rb (Ser-780) antibody (Cell Signaling # 9307) diluted 1:10,000 in antibody dilution buffer (0.1% BSA in TBST). After 1-hour incubation at 37° C., 50 μl/well of Eu-N1 labelled anti-rabbit antibody (Wallac # AD0105; 1:50,000 in antibody dilution buffer) was added. Incubation at 37° C. then proceeded for 1 hour, followed by addition of 50 μl enhancement solution (Wallac #1244-105). The plate was gently agitated and after a few minutes, the fluorescence of the resulting solution was measured using a Multilabel Reader (Victor2 Model # 1420-018 or Envision Model 2100). Inhibition data were analyzed using ActivityBase and IC50 curves were generated using XLFit 3.0.5.

CDK5/GST-p25 = molecular target: T2, CDK5/GST-p25 (Homo sapiens, UniProt Q00535); assay: Inhibition of CDK5/GST-p25 kinase activity (ELISA with time-resolved fluorescence readout); assay type: biochemical
T2 construct: The final construct, encoding for full-length human CDK5; made in house; host or cells: Sf21 insect cells (baculovirus co-infection)
Protocol: Two recombinant baculoviral constructs were created, one encoding for human CDK5 and the other encoding for human p25 with an amino-terminal glutathione-S-transferase (GST) tag. PCR amplification of full-length CDK5 was performed utilizing human brain cDNA as a template and Pfu Turbo polymerase (Strategene). The PCR product from this reaction was subcloned into the baculoviral expression vector pFASTBAC1 (Gibco/BRL). The final construct, encoding for full-length human CDK5 (base pairs 25-903 of GenBank Accession #NM_004935), is 292 amino acids long with a predicted MW of 33.3 kDa.
For p25, the active truncated form of p35, amino acids 108-307 were PCR-amplified from human fetal brain cDNA (Clontech QUICK-Clone cDNA) using the Advantage 2 PCR system (Clontech). The PCR product was subcloned into the baculoviral transfer vector pFBGSTP (an engineered derivative of the baculoviral transfer vector pFASTBAC1). The final baculoviral construct encodes for base pairs 419-1021 of GenBank Accession #NM_003885, with an amino-terminal GST tag. The expressed GST-p25 is 444 amino acids long with a predicted MW of 50.3 kDa.
The CDK5/GST-p25 complex was generated by coexpression. Sf21 cells were cultured in TNM-FHS media at a density of 1.5×10^6 cells/mL and infected with each recombinant virus at MOI values of 5 (for CDK5) and 10 (for GST-p25). The cells were harvested 40 h after infection. For purification, the 100,000×g supernatant solution was used. Expression was confirmed by running samples on SDS-PAGE, followed by immunoblot analysis utilizing antibodies against CDK5 (anti-CDK5 (268-283); Calbiochem #219449) and p35 (Santa Cruz #sc820). The CDK5/GST-p25 complex was purified by glutathione affinity chromatography.
Compounds were tested for their ability to inhibit the kinase activity of recombinant baculoviral CDK5/GST-p25 using an enzyme-linked immunosorbent assay (ELISA) with time-resolved fluorescence (TRF) readout. Briefly, each 384-well FluoroNunc Maxisorp plate (Cat # 460372) plate was coated with 50 μl/well of 50 μg/ml substrate solution (recombinant GST-Rb(773-928)) in Tris-buffered saline (TBS). The CDK5/GST-p25 assay mixture (total volume=50 μl/well) consisting of 20 mM HEPES (pH 7.2), 10 μM ATP, 10 mM MgCl2, 5 mM EGTA, 25 mM β-glycerophosphate, 0.05% BSA, 2.5% DMSO, and various concentrations of test compound were then added to the assay plate. Enzyme (2 ng/ml CDK5/GST-p25) was added and the reaction was allowed to proceed at 37° C. for 20 minutes. Detection of the phosphorylated product was performed by adding 50 μl/well of phospho-Rb (Ser-780) antibody (Cell Signaling # 9307) diluted 1:10,000 in antibody dilution buffer (0.1% BSA in TBST). After 1-hour incubation at 37° C., 50 μl/well of Eu-Nl labelled anti-rabbit antibody (Wallac # AD0105; 1:50,000 in antibody dilution buffer) was added. Incubation at 37° C. then proceeded for 1 hour, followed by addition of 50 μl enhancement solution (Wallac #1244-105). The plate was gently agitated and after a few minutes, the fluorescence of the resulting solution was measured using a Multilabel Reader (Victor2 Model # 1420-018 or Envision Model # 2100). Inhibition data were analyzed using ActivityBase and IC50 curves were generated using XLFit 3.0.5.

T2 sequence (Q00535 whole entry): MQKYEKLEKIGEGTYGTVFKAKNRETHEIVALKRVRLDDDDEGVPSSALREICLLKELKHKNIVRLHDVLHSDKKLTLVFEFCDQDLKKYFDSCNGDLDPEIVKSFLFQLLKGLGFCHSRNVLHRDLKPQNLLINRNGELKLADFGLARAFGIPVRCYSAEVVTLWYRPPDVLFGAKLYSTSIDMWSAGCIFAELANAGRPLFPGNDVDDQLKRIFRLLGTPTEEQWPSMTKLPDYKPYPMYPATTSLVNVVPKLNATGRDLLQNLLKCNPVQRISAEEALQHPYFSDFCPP
T2 sequence (Q15078 108-307 partner limits assumed): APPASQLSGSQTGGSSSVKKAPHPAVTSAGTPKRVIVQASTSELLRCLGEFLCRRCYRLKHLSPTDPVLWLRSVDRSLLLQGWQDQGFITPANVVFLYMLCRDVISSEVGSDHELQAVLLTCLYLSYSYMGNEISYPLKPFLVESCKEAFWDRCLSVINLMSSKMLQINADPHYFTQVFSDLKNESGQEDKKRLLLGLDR
T1 sequence (P49841 2-419): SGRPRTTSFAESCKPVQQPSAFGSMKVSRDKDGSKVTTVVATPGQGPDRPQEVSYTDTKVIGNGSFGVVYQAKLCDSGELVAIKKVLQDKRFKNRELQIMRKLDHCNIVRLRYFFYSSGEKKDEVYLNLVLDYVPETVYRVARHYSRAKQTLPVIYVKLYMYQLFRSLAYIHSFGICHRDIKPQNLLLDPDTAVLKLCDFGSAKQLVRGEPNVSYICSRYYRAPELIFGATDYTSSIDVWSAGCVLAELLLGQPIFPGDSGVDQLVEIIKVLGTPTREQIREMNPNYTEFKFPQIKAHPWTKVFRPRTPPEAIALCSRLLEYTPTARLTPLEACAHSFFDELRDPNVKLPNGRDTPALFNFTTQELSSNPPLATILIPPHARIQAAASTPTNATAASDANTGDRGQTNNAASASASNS

Structure (SMILES)	pIC50 (His6-GSK-3β; class symbols)	pIC50 (CDK5/GST-p25; class symbols)	pIC50 (CDK5/GST-p25; numeric bounds)	GSK3β % @10 μM (His6-GSK-3β; @10 μM)	pIC50 (His6-GSK-3β; numeric bounds)
N#Cc1ccc2c(c1)C(c1nc(N3CCOCC3)nc3nn(C4CCCC4)cc13)C(=O)N2 (stereo not shown) [Example 118, 3-(2-cyclopentyl-6-morpholin-4-yl-2H-pyrazolo[3,4-d]pyrimidin-4-yl)-2-oxo-2,3-dihydro-1H-indole-5-carbonitrile]	> 6.52	5.52 to 6.52	–	–	–
CCCn1cc2c(C3C(=O)Nc4ccc(Br)cc43)nc(N[C@@H]3CCNC3)nc2n1 (stereo partly shown) [Example 363]	5.52 to 6.52	5.52 to 6.52	–	–	–
N#Cc1ccc2c(c1)C(c1nc(N3CCCCC3)nc3nn(C4CCCC4)cc13)C(=O)N2 (stereo not shown) [Example 131, 3-(2-cyclopentyl-6-piperidin-1-yl-2H-pyrazolo[3,4-d]pyrimidin-4-yl)-2-oxo-2,3-dihydro-1H-indole-5-carbonitrile]	> 6.52	< 5.00	–	–	–
Cn1cc2c(C3C(=O)Nc4ccc(Br)cc43)nc(NCCc3cccnc3)nc2n1 (stereo not shown) [Example 305, 5-Bromo-3-[2-methyl-6-(2-pyridin-3-yl-ethylamino)-2H-pyrazolo [3,4-d]pyrimidin-4-yl]-1,3-dihydro-indol-2-one]	> 6.52	> 6.52	–	–	–
CCCCN1CCC(CNc2nc(C3C(=O)Nc4ccc(Cl)cc43)c3cn(C4CCCC4)nc3n2)CC1 (stereo not shown) [Example 275, 3-{6-[(1-Butyl-piperidin-4-ylmethyl)-amino]-2-cyclopentyl-2H-pyrazolo[3,4-d]pyrimidin-4-yl}-5-chloro-1,3-dihydro-indol-2-one]	> 6.52	< 5.00	–	–	–
O=C1Nc2ccc(Br)cc2C1c1nc(Cl)nc2nn(C3CCCC3)cc12 (stereo not shown) [Example 182, 5-Bromo-3-(6-chloro-2-cyclopentyl-2-H-pyrazolo[3,4-d]pyrimidin-4-yl)-1,3-dihydro-indol-2-one]	–	< 5.00	–	–	< 5.52
N#Cc1ccc2c(c1)C(c1nc(Nc3ccc(N4CCS(=O)(=O)CC4)cc3)nc3nn(C4CCCC4)cc13)C(=O)N2 (stereo not shown) [Example 135, 3-{2-Cyclopentyl-6-[4-(1,1-dioxo-1λ^6-thiomorpholin-4-yl)-phenylamino]-2H-pyrazolo[3,4-d]pyrimidin-4-yl}-2-oxo-2,3-dihydro-1H-indole-5-carbonitrile]	> 6.52	< 5.00	–	–	–
N#Cc1ccc2c(c1)C(c1nc(NN)nc3nn(C4CCCC4)cc13)C(=O)N2 (stereo not shown) [Example 124, 3-(2-cyclopentyl-6-hydrazino-2H-pyrazolo [3,4-d]pyrimidin-4-yl)-2-oxo-2,3-dihydro-1H-indole-5-carbonitrile]	> 6.52	5.52 to 6.52	–	–	–

More lines, now with the values ahead:

pIC50 (His6-GSK-3β; class symbols)	pIC50 (CDK5/GST-p25; class symbols)	pIC50 (CDK5/GST-p25; numeric bounds)	GSK3β % @10 μM (His6-GSK-3β; @10 μM)	pIC50 (His6-GSK-3β; numeric bounds)	Structure (SMILES)
> 6.52	–	< 5.52	–	–	N#Cc1ccc2c(c1)C(c1nc(NCCc3ccccc3)nc3nn(C4CCCC4)cc13)C(=O)N2 (stereo not shown) [Example 134, 3-(2-cyclopentyl-6-2-phenethylamino-2H-pyrazolo [3,4-d]pyrimidin-4-yl)-2-oxo-2,3-dihydro-1H-indole-5-carbonitrile]
5.52 to 6.52	5.52 to 6.52	–	–	–	N#Cc1ccc2c(c1)C(c1nc(NCCc3ccccn3)nc3c1CCC3)C(=O)N2 (stereo not shown) [Example 346, 2-Oxo-3-[2-(2-pyridin-2-yl-ethylamino)-6,7-dihydro-5H-cyclopentapyrimidin-4-yl]-2,3-dihydro-1H-indole-5-carbonitrile]
> 6.52	> 6.52	–	–	–	N#Cc1ccc2c(c1)C(c1nc(NCc3ccc(C(F)(F)F)nc3)nc3nn(C4CCCC4)cc13)C(=O)N2 (stereo not shown) [Example 173, 3-{2-Cyclopentyl-6-[(6-trifluoromethyl-pyridin-3-ylmethyl)-amino]-2H-pyrazolo [3,4-d]pyrimidin-4-yl}-2-oxo-2,3-dihydro-1H-indole-5-carbonitrile]
5.52 to 6.52	5.52 to 6.52	–	–	–	O=C1Nc2ccc(Br)cc2C1c1nc(NCc2cccnc2)nc2c1CCC2 (stereo not shown) [Example 337, 5-Bromo-3-{2-[(pyridin-3-ylmethyl)-amino]-6,7-dihydro-5H-cyclopentapyrimidin-4-yl}-1,3-dihydro-indol-2-one]
–	< 5.00	–	67% @10 μM	–	N#Cc1ccc2c(c1)C(c1nc(NCCc3ccncc3)nc3c1CCC3)C(=O)N2 (stereo not shown) [Example 345, 2-Oxo-3-[2-(2-pyridin-4-yl-ethylamino)-6,7-dihydro-5H-cyclopentapyrimidin-4-yl]-2,3-dihydro-1H-indole-5-carbonitrile]
–	–	< 5.52	–	< 5.52	O=C1Nc2ccc(F)cc2C1c1nc(NCc2ccncc2)nc2c1CCC2 (stereo not shown) [Example 320, 5-Fluoro-3-{2-[(pyridin-4-ylmethyl)-amino]-6,7-dihydro-5H-cyclopentapyrimidin-4-yl}-1,3-dihydro-indol-2-one]
< 5.00	< 5.00	–	–	–	O=C1Nc2ccc(Br)cc2C1c1nc(Cl)nc2c1CCC2 (stereo not shown) [Example 314, 5-Bromo-3-(2-chloro-6,7-dihydro-5H-cyclopentapyrimidin-4-yl)-1,3-dihydro-indol-2-one]
> 6.52	5.52 to 6.52	–	–	–	CN(C)CCNc1nc(C2C(=O)Nc3ccc(C#N)cc32)c2cn(C3CCCC3)nc2n1 (stereo not shown) [Example 119, 3-(2-cyclopentyl-6-(2-dimethylamino-ethylamino)-2H-pyrazolo [3,4-d]pyrimidin-4-yl)-2-oxo-2,3-dihydro-1H-indole-5-carbonitrile]
< 5.00	< 5.00	–	–	–	CCCOCCNc1nc2c(c(C3C(=O)Nc4ccc(C#N)cc43)n1)CCC2 (stereo not shown) [Example 343, 2-Oxo-3-[2-(2-propoxy-ethylamino)-6,7-dihydro-5H-cyclopentapyrimidin-4-yl]-2,3-dihydro-1H-indole-5-carbonitrile]
